Data taken from patent US8088763B2 (priority 2004, dated 2012).

What was measured:
[1] = target: T1, 5HT-uptake (Rattus norvegicus, UniProt P31652); assay: biochemical; settings: for inhibition at 10 µM: read-out: 5HT-uptake [10 μM], % inhibition
T1 construct: synaptosomes were freshly isolated from areas of rats' brains

[2] = target: NA-uptake (Rattus norvegicus, UniProt Q63380); assay: biochemical; settings: for inhibition at 10 µM: read-out: NA-uptake [10 μM], % inhibition
Chain of NA-uptake (Q63380 1-617): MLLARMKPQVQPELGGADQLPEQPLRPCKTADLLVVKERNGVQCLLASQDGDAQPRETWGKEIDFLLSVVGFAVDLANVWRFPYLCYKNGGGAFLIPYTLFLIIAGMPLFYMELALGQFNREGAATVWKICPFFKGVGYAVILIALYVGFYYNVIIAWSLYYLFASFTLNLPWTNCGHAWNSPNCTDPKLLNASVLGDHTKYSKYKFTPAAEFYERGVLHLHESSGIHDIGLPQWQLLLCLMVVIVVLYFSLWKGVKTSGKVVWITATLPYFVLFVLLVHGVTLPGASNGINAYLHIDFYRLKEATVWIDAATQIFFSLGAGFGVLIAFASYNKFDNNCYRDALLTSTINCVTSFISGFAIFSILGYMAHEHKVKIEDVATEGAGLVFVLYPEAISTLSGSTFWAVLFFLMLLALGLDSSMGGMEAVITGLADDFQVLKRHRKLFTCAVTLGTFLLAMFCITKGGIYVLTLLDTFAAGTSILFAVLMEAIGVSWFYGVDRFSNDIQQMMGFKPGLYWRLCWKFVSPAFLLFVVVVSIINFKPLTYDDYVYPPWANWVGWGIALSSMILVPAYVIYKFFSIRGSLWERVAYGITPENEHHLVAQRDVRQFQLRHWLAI

T1 sequence (P31652 whole entry): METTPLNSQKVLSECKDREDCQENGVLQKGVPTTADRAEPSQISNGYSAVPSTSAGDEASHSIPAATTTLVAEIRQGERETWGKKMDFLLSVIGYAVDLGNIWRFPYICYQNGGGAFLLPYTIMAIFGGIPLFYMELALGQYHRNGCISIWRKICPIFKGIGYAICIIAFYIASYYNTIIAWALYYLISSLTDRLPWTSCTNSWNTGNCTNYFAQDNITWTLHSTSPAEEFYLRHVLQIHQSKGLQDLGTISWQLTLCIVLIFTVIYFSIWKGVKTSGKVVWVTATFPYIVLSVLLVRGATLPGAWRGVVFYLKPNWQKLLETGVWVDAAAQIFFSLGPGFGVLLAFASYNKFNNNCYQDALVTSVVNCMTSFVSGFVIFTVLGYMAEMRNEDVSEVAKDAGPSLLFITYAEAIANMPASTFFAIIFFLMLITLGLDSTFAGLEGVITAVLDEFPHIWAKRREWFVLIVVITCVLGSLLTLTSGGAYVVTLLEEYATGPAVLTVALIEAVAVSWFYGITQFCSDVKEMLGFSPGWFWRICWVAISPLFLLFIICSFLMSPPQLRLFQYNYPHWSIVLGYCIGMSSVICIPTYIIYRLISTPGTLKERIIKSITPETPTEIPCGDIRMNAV

For `CN(C)C1(Cc2ccc(Cl)cc2)CCC(NC(=O)CCC(=O)N2CC=C(c3ccc(F)cc3)CC2)CC1` (centres unmarked) [Example 104, N-[4-(4-chloro-benzyl)-4-dimethylamino-cyclohexyl]-4-[4-(4-fluoro-phenyl)-3,6-dihydro-2H-pyridin-1-yl]-4-oxo-butyramide], the inhibition at 10 µM [1] was 93% and the inhibition at 10 µM [2] was 84%.

`Cc1ccc(CC2(N(C)C)CCC(NC(=O)CCC(=O)NC(C)C(C)C)CC2)cc1` (centres unmarked) [Example 105, N-[4-dimethylamino-4-(4-methyl-benzyl)-cyclohexyl]-N′-(1,2-dimethyl-propyl)-succinamide] gave an inhibition at 10 µM [1] of 92% and an inhibition at 10 µM [2] of 90%.

`Cc1cccc(CC2(N(C)C)CCC(NC(=O)CCC(=O)N3CCc4[nH]c5ccc(F)cc5c4C3)CC2)c1` (centres unmarked) [Example 106, N-[4-dimethylamino-4-(3-methyl-benzyl)-cyclohexyl]-4-(8-fluoro-1,3,4,5-tetrahydro-pyrido[4,3-b]indol-2-yl)-4-oxo-butyramide] was tested, and the inhibition at 10 µM [1] was 93% and the inhibition at 10 µM [2] was 98%.

`Cc1cccc(CC2(N(C)C)CCC(NC(=O)CCC(=O)N3CCN(C(=O)c4cccc(Cl)c4)CC3)CC2)c1` (centres unmarked) [Example 107, 4-[4-(3-chloro-benzoyl)-piperazin-1-yl]-N-[4-dimethylamino-4-(3-methyl-benzyl)-cyclohexyl]-4-oxo-butyramide] was tested, and the inhibition at 10 µM [1] was 95% and the inhibition at 10 µM [2] was 106%.

`COc1ccc(NC(=O)CCC(=O)NC2CCC(Cc3ccc(Cl)cc3)(N(C)C)CC2)cc1` (centres unmarked) [Example 108, N-[4-(4-chloro-benzyl)-4-dimethylamino-cyclohexyl]-N′-(4-methoxy-phenyl)-succinamide] showed an inhibition at 10 µM [1] of 94% and an inhibition at 10 µM [2] of 100%.

`Cc1cccc(CC2(N(C)C)CCC(NC(=O)CCC(=O)N(C)CCc3c[nH]c4ccccc34)CC2)c1` (centres unmarked) [Example 111, N-[4-dimethylamino-4-(3-methyl-benzyl)-cyclohexyl]-N′-[2-(1H-indol-3-yl)-ethyl]-N′-methyl-succinamide] gave an inhibition at 10 µM [1] of 96% and an inhibition at 10 µM [2] of 97%.

`Cc1cccc(CC2(N(C)C)CCC(NC(=O)CCC(=O)NC(C)c3ccc(F)cc3)CC2)c1` (centres unmarked) [Example 112, N-[4-dimethylamino-4-(3-methyl-benzyl)-cyclohexyl]-N′-[1-(4-fluoro-phenyl)-ethyl]-succinamide] gave an inhibition at 10 µM [1] of 96% and an inhibition at 10 µM [2] of 101%.

With `Cc1cccc(CC2(N(C)C)CCC(NC(=O)CCC(=O)N3CCN(c4ccc(Cl)cc4)CC3)CC2)c1` (centres unmarked) [Example 113, 4-[4-(4-chloro-phenyl)-piperazin-1-yl]-N-[4-dimethylamino-4-(3-methyl-benzyl)-cyclohexyl]-4-oxo-butyramide] the inhibition at 10 µM [1] was 97% and the inhibition at 10 µM [2] was 94%.

For `CN(C)C1(Cc2cccc(Cl)c2)CCC(NC(=O)CCC(=O)N2CCC3(CC2)C(=O)NCN3c2ccccc2)CC1` (centres unmarked) [Example 114, N-[4-(3-chloro-benzyl)-4-dimethylamino-cyclohexyl]-4-oxo-4-(4-oxo-1-phenyl-1,3,8-triaza-spiro[4.5]dec-8-yl)-butyramide], the inhibition at 10 µM [1] was 99% and the inhibition at 10 µM [2] was 106%.

With `Cc1cccc(CC2(N(C)C)CCC(NC(=O)CCC(=O)NC(C)c3ccc4ccccc4c3)CC2)c1` (centres unmarked) [Example 122, N-[4-dimethylamino-4-(3-methyl-benzyl)-cyclohexyl]-N′-(1-naphthalen-2-yl-ethyl)-succinamide] the inhibition at 10 µM [1] was 93% and the inhibition at 10 µM [2] was 102%.

For `COCC(Cc1ccccc1)NC(=O)CCC(=O)NC1CCC(Cc2cccc(Cl)c2)(N(C)C)CC1` (centres unmarked) [Example 123, N-[4-(3-chloro-benzyl)-4-dimethylamino-cyclohexyl]-N′-(1-methoxymethyl-2-phenyl-ethyl)-succinamide], the inhibition at 10 µM [1] was 92% and the inhibition at 10 µM [2] was 99%.

Work on `Cc1ccc(CC2(N(C)C)CCC(NC(=O)CCC(=O)NC3CCCc4ccccc43)CC2)cc1` (centres unmarked) [Example 126, N-[4-dimethylamino-4-(4-methyl-benzyl)-cyclohexyl]-N′-(1,2,3,4-tetrahydro-naphthalen-1-yl)-succinamide] yielded an inhibition at 10 µM [1] of 93% and an inhibition at 10 µM [2] of 84%.

`CN(C)C1(Cc2cccc(Cl)c2)CCC(NC(=O)CCC(=O)NCc2cc(Cl)ccc2Cl)CC1` (centres unmarked) [Example 133, N-[4-(3-chloro-benzyl)-4-dimethylamino-cyclohexyl]-N′-(2,5-dichloro-benzyl)-succinamide] gave an inhibition at 10 µM [1] of 93% and an inhibition at 10 µM [2] of 97%.

Compound `CN(C)C1(Cc2ccc(Cl)cc2)CCC(NC(=O)CCC(=O)N2CCN(C(=O)c3cccc(Cl)c3)CC2)CC1` (centres unmarked) [Example 134, 4-[4-(3-chloro-benzoyl)-piperazin-1-yl]-N-[4-(4-chloro-benzyl)-4-dimethylamino-cyclohexyl]-4-oxo-butyramide] has an inhibition at 10 µM [1] of 92% and an inhibition at 10 µM [2] of 101%.

`CCC(NC(=O)CCC(=O)NC1CCC(Cc2ccc(Cl)cc2)(N(C)C)CC1)c1ccccc1` (centres unmarked) [Example 135, N-[4-(4-chloro-benzyl)-4-dimethylamino-cyclohexyl]-N′-(1-phenyl-propyl)-succinamide] showed an inhibition at 10 µM [1] of 92% and an inhibition at 10 µM [2] of 96%.

`CN(Cc1cccnc1)C(=O)CCC(=O)NC1CCC(Cc2cccc(Cl)c2)(N(C)C)CC1` (centres unmarked) [Example 137, N-[4-(3-chloro-benzyl)-4-dimethylamino-cyclohexyl]-N′-methyl-N′-pyridin-3-ylmethyl-succinamide] was tested, and the inhibition at 10 µM [1] was 94% and the inhibition at 10 µM [2] was 83%.

For `CCOc1ccccc1CNC(=O)CCC(=O)NC1CCC(Cc2ccc(C)cc2)(N(C)C)CC1` (centres unmarked) [Example 138, N-[4-dimethylamino-4-(4-methyl-benzyl)-cyclohexyl]-N′-(2-ethoxy-benzyl)-succinamide], the inhibition at 10 µM [1] was 92% and the inhibition at 10 µM [2] was 84%.

For `COc1ccc2[nH]cc(CCNC(=O)CCC(=O)NC3CCC(Cc4cccc(C)c4)(N(C)C)CC3)c2c1` (centres unmarked) [Example 139, N-[4-dimethylamino-4-(3-methyl-benzyl)-cyclohexyl]-N′-(2-(5-methoxy-1H-indol-3-yl)-ethyl]-succinamide], the inhibition at 10 µM [1] was 93% and the inhibition at 10 µM [2] was 95%.

Work on `CCC(C)c1ccc(NC(=O)CCC(=O)NC2CCC(Cc3ccc(Cl)cc3)(N(C)C)CC2)cc1` (centres unmarked) [Example 140, N-(4-sec-butyl-phenyl)-N′-[4-(4-chloro-benzyl)-4-dimethylamino-cyclohexyl]-succinamide] yielded an inhibition at 10 µM [1] of 93% and an inhibition at 10 µM [2] of 77%.

`CN(C)C1(Cc2ccc(Cl)cc2)CCC(NC(=O)CCC(=O)NCc2cccc(Br)c2)CC1` (centres unmarked) [Example 165, N-(3-bromo-benzyl)-N′-[4-(4-chloro-benzyl)-4-dimethylamino-cyclohexyl]-succinamide] showed an inhibition at 10 µM [1] of 92% and an inhibition at 10 µM [2] of 94%.

In the case of `Cc1ccc(CCNC(=O)CCC(=O)NC2CCC(Cc3ccc(C)cc3)(N(C)C)CC2)cc1` (centres unmarked) [Example 168, N-[4-dimethylamino-4-(4-methyl-benzyl)-cyclohexyl]-N′-(2-p-tolyl-ethyl)-succinamide], the inhibition at 10 µM [1] is reported as 92% and the inhibition at 10 µM [2] is reported as 96%.

With “Glutaric acid-(4-benzyl-4-dimethylamino- cyclohexyl)-amide 4-dimethylamino- benzylamide [Example 81]” the “5HT-uptake [10 μM], % inhibition” value [1] was 92% and the “NA-uptake [10 μM], % inhibition” value [2] was 91%.
